Laboratory results: patent US8802132B2, “Anti-microbial tissue paper and process to manufacture same” (Cascades Canada ULC, priority 2010, dated 2014)

What was measured:
[1] = Benzalkonium chloride release from wetted paper, lab blender extraction method; format: physicochemical; conditions: hand towel made of recycled pulp; cationizing agent about 1.2 wt % (12 kg/T); benzalkonium chloride about 1 wt %
Source text: As mentioned above, the cationizing agent at least partially neutralizes the paper anionic charges. Thereby, a portion of the antimicrobial agent, which can also be cationic, is not retained on the tissue paper when the latter is wetted and is thereby released. In an embodiment, the tissue paper has a release rate between approximately 0.01 wt % and 0.6 wt % when wetted. In an alternative embodiment, the tissue paper has a release rate between approximately 0.05 wt % and 0.2 wt % when wetted. For example, a tissue paper containing about 0.3 wt % of antimicrobial agent can release about 0.1 wt % of antimicrobial agent when wetted. The antimicrobial agent released from the tissue paper is measured relatively to the original, substantially dry tissue paper weight including the cationizing and antimicrobial agents. The antimicrobial agent released from the tissue paper is measured in a solution, such as water, following extraction. For the release rates mentioned in the application, the extraction is carried out by the lab blender method described below. The antimicrobial agent in the solution is measured by a method such as and without being limitative biphasic titration or high performance liquid chromatography (HPLC).
The amount of antimicrobial agent released will be highly dependent on the method used to retrieve it from the paper. […]

[2] = Charge density of cationizing agents, antimicrobial agent and fibres; format: physicochemical

Molecule	Benzalkonium chloride released [1]	Charge density ([2]; cationic agent of Table 3)	Charge density ([2]; Table 4, recycled deinked pulp (DIP) hand towel)	Charge density ([2]; Table 5, virgin bleached Kraft hand towel)
CCCCCCCCCCCCCCCC[N+](C)(C)C.[Cl-] [Cetyltrimethylammonium chloride, cetyltrimethylammonium chloride]	0.23 % (w/w)	3.76 eq/kg	–	–
benzalkonium chloride [Antimicrobial agent]	–	–	+2.9 equiv/kg	+2.9 equiv/kg
